Measurements reported in the supplement of paper PMC4862054.

What was measured:
Conditions in all cases: incubation time: 72 h
CAL-85-1 [1] = experiment: normalised viability (% of control), CellTiter-Blue; higher = more viable cells (100 = DMSO, 0 = benzethonium chloride kill control)
Procedure, shortened: (§1)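 Normalised viability is given for a single listed concentration of the series. In 384-well plates, breast cancer cell lines were incubated 72 h with compound, then read with CellTiter-Blue (2 h, 37 °C) at 560/590 nm. Per-plate scaling set vehicle to 100 and a positive kill control to 0, with Z'-factor quality control.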

MFM-223 [2] = experiment: as above
Procedure, shortened: as §1

MDA-MB-231 [3] = experiment: as above
Procedure, shortened: as §1

Hs578T [4] = experiment: as above
Procedure, shortened: as §1

MDA-MB-453 [5] = experiment: as above
Procedure, shortened: as §1

CAL-148 [6] = experiment: as above
Procedure, shortened: as §1

SK-BR-3 [7] = experiment: as above
Procedure, shortened: as §1

MDA-MB-468 [8] = experiment: as above
Procedure, shortened: as §1

HCC1143 [9] = experiment: as above
Procedure, shortened: as §1

HCC1937 [10] = experiment: as above
Procedure, shortened: as §1

MDA-MB-436 [11] = experiment: as above
Procedure, shortened: as §1

BT-474 [12] = experiment: as above
Procedure, shortened: as §1

DU-4475 [13] = experiment: as above
Procedure, shortened: as §1

HCC1599 [14] = experiment: as above
Procedure, shortened: as §1

BT-549 [15] = experiment: as above
Procedure, shortened: as §1

HDQ-P1 [16] = experiment: as above
Procedure, shortened: as §1

CAL-120 [17] = experiment: as above
Procedure, shortened: as §1

CAL-51 [18] = experiment: as above
Procedure, shortened: as §1

CAL-85-1 [19] = experiment: normalised response (% of control), CellTiter-Glo; higher = more viable cells (100 = DMSO, 0 = benzethonium chloride kill control)
Procedure, shortened: (§2)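 Compound was dispensed into 384-well plates at 5 concentrations in 10-fold steps spanning a 10,000-fold range specific to that compound. Breast cancer cell lines were added as 20 µl suspension and left for 72 h before CellTox Green fluorescence (485/520 nm) and then CellTiter-Glo luminescence, read after 10 min at room temperature. Each reported value is the normalised signal at one concentration, with 0.1 % DMSO set at 100 and a positive kill control at 0 on each plate.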

MFM-223 [20] = experiment: as above
Procedure, shortened: as §2

MDA-MB-231 [21] = experiment: as above
Procedure, shortened: as §2

Hs578T [22] = experiment: as above
Procedure, shortened: as §2

MDA-MB-453 [23] = experiment: as above
Procedure, shortened: as §2

CAL-148 [24] = experiment: as above
Procedure, shortened: as §2

SK-BR-3 [25] = experiment: as above
Procedure, shortened: as §2

MDA-MB-468 [26] = experiment: as above
Procedure, shortened: as §2

HCC1143 [27] = experiment: as above
Procedure, shortened: as §2

HCC1937 [28] = experiment: as above
Procedure, shortened: as §2

MDA-MB-436 [29] = experiment: as above
Procedure, shortened: as §2

BT-474 [30] = experiment: as above
Procedure, shortened: as §2

DU-4475 [31] = experiment: as above
Procedure, shortened: as §2

HCC1599 [32] = experiment: as above
Procedure, shortened: as §2

BT-549 [33] = experiment: as above
Procedure, shortened: as §2

HDQ-P1 [34] = experiment: as above
Procedure, shortened: as §2

CAL-120 [35] = experiment: as above
Procedure, shortened: as §2

CAL-51 [36] = experiment: as above
Procedure, shortened: as §2

MCF-10A = experiment: as above
Procedure, shortened: as §2

SMILES	normalised viability (CAL-85-1 [1]) [%]	normalised viability (MFM-223 [2]) [%]	normalised viability (MDA-MB-231 [3]) [%]	normalised viability (Hs578T [4]) [%]	normalised viability (MDA-MB-453 [5]) [%]	normalised viability (CAL-148 [6]) [%]	normalised viability (SK-BR-3 [7]) [%]	normalised viability (MDA-MB-468 [8]) [%]	normalised viability (HCC1143 [9]) [%]	normalised viability (HCC1937 [10]) [%]	normalised viability (MDA-MB-436 [11]) [%]	normalised viability (BT-474 [12]) [%]	normalised viability (DU-4475 [13]) [%]	normalised viability (HCC1599 [14]) [%]	normalised viability (BT-549 [15]) [%]	normalised viability (HDQ-P1 [16]) [%]	normalised viability (CAL-120 [17]) [%]	normalised viability (CAL-51 [18]) [%]	normalised response (CAL-85-1 [19]) [%]	normalised response (MFM-223 [20]) [%]	normalised response (MDA-MB-231 [21]) [%]	normalised response (Hs578T [22]) [%]	normalised response (MDA-MB-453 [23]) [%]	normalised response (CAL-148 [24]) [%]	normalised response (SK-BR-3 [25]) [%]	normalised response (MDA-MB-468 [26]) [%]	normalised response (HCC1143 [27]) [%]	normalised response (HCC1937 [28]) [%]	normalised response (MDA-MB-436 [29]) [%]	normalised response (BT-474 [30]) [%]	normalised response (DU-4475 [31]) [%]	normalised response (HCC1599 [32]) [%]	normalised response (BT-549 [33]) [%]	normalised response (HDQ-P1 [34]) [%]	normalised response (CAL-120 [35]) [%]	normalised response (CAL-51 [36]) [%]	normalised response (MCF-10A) [%]
C[C@]12C=CC(=O)C=C1CC[C@@H]1[C@@H]2C(=O)C[C@@]2(C)[C@H]1CC[C@]2(O)C(=O)CO [Prednisone] (1 nM)	100	96.2	95.9	104	103	101	90.8	104	92.8	93.5	110	126	110	113	105	98.1	84.3	99.5	99.1	106	98.5	97.1	111	106	109	104	101	99.9	110	99.4	103	100	99.8	101	109	92.7	98.2
CO[C@H]1C[C@@H]2CC[C@@H](C)[C@@](O)(O2)C(=O)C(=O)N2CCCC[C@H]2C(=O)O[C@H]([C@H](C)C[C@@H]2CC[C@@H](O)[C@H](OC)C2)CC(=O)[C@H](C)/C=C(\C)[C@@H](O)[C@@H](OC)C(=O)[C@H](C)C[C@H](C)/C=C/C=C/C=C/1C [Sirolimus] (0.1 nM)	93.9	80.3	85.2	74.4	99.4	105	90.8	94.3	105	85.3	103	84.2	94.8	91.9	88	100	102	78.8	96.1	100	96.9	102	95	101	91.1	93.8	102	103	94.3	101	98.9	108	89.9	100	94	96.3	108
CN1CCN(c2nc(C3=C(c4c[nH]c5ccccc45)C(=O)NC3=O)c3ccccc3n2)CC1 [Sotrastaurin] (1 nM)	109	100	94.1	101	102	116	91.3	97.7	131	89.5	104	116	104	95.2	86.1	85.2	117	97	93	93	98	99.2	96.9	94.8	93.3	104	89.9	99	94	90.6	97.5	89.5	103	99.8	97	100	88
CC/C(=C(\c1ccccc1)c1ccc(OCCN(C)C)cc1)c1ccccc1 [Tamoxifen] (1 nM)	110	93.3	95.1	118	107	113	102	106	104	88.8	96	81.7	104	84.7	81.6	105	104	90.2	101	102	106	102	110	103	103	104	109	102	109	105	98.6	94.3	96.4	103	99	99.3	111
